These results are taken from patent US11066414B2, “Cot modulators and methods of use thereof” (Gilead Sciences, Inc., priority 2015, dated 2021).

Read-outs that look alike come from different tables or passages of the source.

The target in one test is Human Cot (Homo sapiens (Human), UniProt P41279). Put plainly: High Throughput Cot Biochemical Assay.
For a further test, the system named is TNFα. Put plainly: Cot Monocyte TNFα Cell Based Assay.
[1] abbreviates: IC50 HTRF, Cot HTRF (TR-FRET) biochemical assay.
Where [2] appears, read: Homo sapiens, Monocyte, read-out: EC50 TNF, LPS-stimulated human monocytes, TNFα.

Chain of Human Cot (P41279 30-397): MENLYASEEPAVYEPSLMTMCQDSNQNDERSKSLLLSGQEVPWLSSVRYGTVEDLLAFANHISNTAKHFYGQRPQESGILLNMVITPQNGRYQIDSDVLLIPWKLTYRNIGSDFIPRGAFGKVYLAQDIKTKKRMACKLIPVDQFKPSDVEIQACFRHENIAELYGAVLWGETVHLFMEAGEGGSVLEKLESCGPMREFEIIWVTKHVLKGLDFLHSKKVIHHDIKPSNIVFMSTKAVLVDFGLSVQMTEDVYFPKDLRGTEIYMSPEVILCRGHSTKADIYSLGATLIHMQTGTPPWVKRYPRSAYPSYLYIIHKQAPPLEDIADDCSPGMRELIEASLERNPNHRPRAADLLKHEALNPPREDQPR

Turning to `Cc1nc([C@H](Nc2cc(Cl)c3ncc(C#N)c(Nc4ccc(F)c(Cl)c4)c3c2)c2cn(C3CCN(C(C)(C)C)CC3)nn2)c(C)o1` [Example 262, (S)-6-(((1-(1-(tert-butyl)piperidin-4-yl)-1H-1,2,3-triazol-4-yl)(2,5-dimethyloxazol-4-yl)methyl)amino)-8-chloro-4-((3-chloro-4-fluorophenyl)amino)quinoline-3-carbonitrile], at Human Cot (setting [1]), the IC50 (commonly the concentration needed to halve the response being measured) is 11 nM. Besides, the EC50 (in general, the concentration at which the effect is half-maximal) in the test on TNFα (setting [2]) was found to be 130 nM.

At Human Cot (setting [1]), `N#CCn1cc([C@@H](Nc2cc(Cl)c3ncc(C#N)c(Nc4ccc(F)c(Cl)c4)c3c2)c2cscn2)nn1` [Example 364, (S)-8-chloro-4-((3-chloro-4-fluorophenyl)amino)-6-(((1-(cyanomethyl)-1H-1,2,3-triazol-4-yl)(thiazol-4-yl)methyl)amino)-quinoline-3-carbonitrile] showed a 50% inhibitory concentration (IC50) of 7 nM. Further, in the test with TNFα (setting [2]), the concentration giving a half-maximal response (EC50) is 241 nM.

In the case of `N#Cc1cnc2c(Cl)cc(N[C@H](c3c[nH]nn3)c3cccnc3F)cc2c1Nc1cnc(F)c(F)c1` [Example 151, (S)-8-chloro-4-((5,6-difluoropyridin-3-yl)amino)-6-(((2-fluoropyridin-3-yl)(1H-1,2,3-triazol-4-yl)methyl)amino)quinoline-3-carbonitrile], the midpoint of inhibition against Human Cot (setting [1]), the IC50, lay at 8 nM. Also, in the test with TNFα (setting [2]), the EC50 is 1300 nM.

`Cc1ncccc1[C@H](Nc1cc(Cl)c2ncc(C#N)c(Nc3cnc(F)c(F)c3)c2c1)c1cn(C2COC2)nn1` [Example 172, (S)-8-chloro-4-((5,6-difluoropyridin-3-yl)amino)-6-(((2-methylpyridin-3-yl)(1-(oxetan-3-yl)-1H-1,2,3-triazol-4-yl)methyl)amino)quinoline-3-carbonitrile] registered an IC50 on Human Cot (setting [1]) of 10 nM. In addition, the half-maximal effective concentration (EC50) in the test on TNFα (setting [2]) turned out to be 832 nM.

Consider `[2H][C@](Nc1cc(Cl)c2ncc(C#N)c(NCC(C)(C)C)c2c1)(c1ccc(F)nc1)c1cn(C2(C(F)F)CC2)nn1` [Example 518, (S)-8-chloro-6-(((1-(1-(difluoromethyl)-cyclopropyl)-1H-1,2,3-triazol-4-yl)(6-fluoropyridin-3-yl)methyl-d)amino)-4-(neopentylamino)quinoline-3-carbonitrile], for which the IC50 on Human Cot (setting [1]) turned out to be 7 nM. Besides, the concentration for a half-maximal effect (EC50) in the test with TNFα (setting [2]) came out at 207 nM.

With `Cn1ccc2c([C@H](Nc3cc(C#N)c4ncc(C#N)c(NCC(C)(C)C)c4c3)c3cn(C(CF)CF)nn3)cccc2c1=O` [Example 880, (S)-6-(((1-(l,3-difluoropropan-2-yl)-1H-1,2,3-triazol-4-yl)(2-methyl-1-oxo-1,2-dihydroisoquinolin-5-yl)methyl)amino)-4-(neopentylamino)quinoline-3,8-dicarbonitrile], the IC50 at Human Cot (read-out: IC50 HTRF, Cot HTRF (TR-FRET KinEASE) biochemical assay, 400 μM ATP) is 3 nM. For the same compound, in the test on TNFα (read-out: EC50 TNF, LPS-stimulated human monocytes, TNFα TR-FRET), the EC50 is 80 nM.

In turn, `CC(C)(C)N1CCC(n2cc([C@@H](Nc3cc(Cl)c4ncc(C#N)c(NC5CCCCCC5)c4c3)c3cccnc3)nn2)CC1` [Example 288, (S)-6-(((1-(1-(tert-butyl)piperidin-4-yl)-1H-1,2,3-triazol-4-yl)(pyridin-3-yl)methyl)amino)-8-chloro-4-(cycloheptylamino)quinoline-3-carbonitrile] yielded an IC50 against Human Cot (setting [1]) of 26 nM. In the test on TNFα (setting [2]), the EC50 was 1060 nM.

At Human Cot (setting [1]), `[2H][C@](Nc1cc(Cl)c2ncc(C#N)c(Nc3cnc(F)c(F)c3)c2c1)(c1cncc(C#N)c1)c1cn(C2CC2)nn1` [Example 143, (S)-8-chloro-6-(((5-cyanopyridin-3-yl)(1-cyclopropyl-1H-1,2,3-triazol-4-yl)methyl-d)amino)-4-((5,6-difluoropyridin-3-yl)amino)quinoline-3-carbonitrile] showed a half-maximal inhibitory concentration (IC50) of 16 nM. Further, the 50% effective concentration (EC50) in the test with TNFα (setting [2]) came to 898 nM.

With `[2H]C([2H])([2H])C([2H])([2H])[C@@H](Nc1c(C#N)cnc2c(Cl)cc(N[C@@]([2H])(c3ccc(F)nc3)c3cn(C4CC4)nn3)cc12)c1ccccc1` [Example 106, 8-chloro-6-(((S)-(1-cyclopropyl-1H-1,2,3-triazol-4-yl)(6-fluoropyridin-3-yl)methyl-d)amino)-4-(((R)-1-phenylpropyl-2,2,3,3,3-d5)amino)-quinoline-3-carbonitrile], inhibition at Human Cot (setting [1]) was half-maximal at 2 nM (IC50). Further, the half-maximal effective concentration (EC50) in the test with TNFα (setting [2]) was 76 nM.

Turning to `N#Cc1cnc2c(Cl)cc(N[C@@H](c3cccnc3)c3c[nH]nn3)cc2c1Nc1cccc(Cl)c1F` [Example 257, (S)-8-chloro-4-((3-chloro-2-fluorophenyl)amino)-6-((pyridin-3-yl(1H-1,2,3-triazol-4-yl)methyl)-amino)quinoline-3-carbonitrile], the IC50 against Human Cot (setting [1]) was determined as 6 nM. Further, the EC50 in the test on TNFα (setting [2]) is 212 nM.

Take `Cc1nc2cccc([C@H](Nc3cc(C#N)c4ncc(C#N)c(NCC(C)(C)C)c4c3)c3cn(C4CC4)nn3)c2s1` [Example 427, (S)-6-(((1-cyclopropyl-1H-1,2,3-triazol-4-yl)(2-methylbenzo[d]thiazol-7-yl)methyl)amino)-4-(neopentylamino)-quinoline-3,8-dicarbonitrile]: the half-inhibitory concentration (IC50) against Human Cot (setting [1]) was 2 nM. The EC50 in the test with TNFα (setting [2]) came out at 41 nM.

Compound `Cc1nc(F)ccc1[C@H](Nc1cc(Cl)c2ncc(C#N)c(NCC3(C)CCC3)c2c1)c1cn(C2(C(F)F)CC2)nn1` [Example 502, (S)-8-chloro-6-(((1-(1-(difluoromethyl)-cyclopropyl)-1H-1,2,3-triazol-4-yl)(6-fluoro-2-methylpyridin-3-yl)methyl)-amino)-4-(((1-methylcyclobutyl)methyl)-amino) quinoline-3-carbonitrile] showed an IC50 at Human Cot (setting [1]) of 6 nM. Also, the EC50 in the test on TNFα (setting [2]) worked out at 206 nM.

Regarding `Cn1cccc([C@H](Nc2cc(Cl)c3ncc(C#N)c(NCC(C)(C)C)c3c2)c2cn(C3(C(F)(F)F)CC3)nn2)c1=O` [Example 936, (S)-8-chloro-6-(((1-methyl-2-oxo-1,2-dihydropyridin-3-yl)(1-(1-(trifluoromethyl)cyclopropyl)-1H-1,2,3-triazol-4-yl)methyl)amino)-4-(neopentylamino)quinoline-3-carbonitrile], on Human Cot (IC50 HTRF, Cot HTRF (TR-FRET KinEASE) biochemical assay, 400 μM ATP), half-maximal inhibition (IC50) required 18 nM. Besides, in the test with TNFα (Homo sapiens, Monocyte, read-out: EC50 TNF, LPS-stimulated human monocytes, TNFα TR-FRET), the concentration for a half-maximal effect (EC50) was 287 nM.

On to `CC(C)(C)CNc1c(C#N)cnc2c(C#N)cc(N[C@H](c3cn(C4(C5CC5)CC4)nn3)c3cccc4cnccc34)cc12` [Example 703, (S)-6-(((1-([1,1′-bi(cyclopropan)]-1-yl)-1H-1,2,3-triazol-4-yl)(isoquinolin-5-yl)methyl)amino)-4-(neopentylamino)quinoline-3,8-dicarbonitrile], for which, on Human Cot (setting [1]), the half-maximal inhibitory concentration (IC50) was 2 nM. Moreover, the 50% effective concentration (EC50) in the test on TNFα (setting [2]) came to 22 nM.

As to `CC1(C)COCC[C@@H]1Nc1c(C#N)cnc2c(C#N)cc(N[C@H](c3cn(C4(C(F)(F)F)CC4)nn3)c3cccc4ncsc34)cc12` [Example 475, 6-(((S)-benzo[d]thiazol-7-yl(1-(1-(trifluoromethyl)cyclopropyl)-1H-1,2,3-triazol-4-yl)methyl)amino)-4-(((S)-3,3-dimethyltetrahydro-2H-pyran-4-yl)amino)quinoline-3,8-dicarbonitrile], at Human Cot (setting [1]), inhibition was half-maximal at 20 nM (IC50). Besides, in the test on TNFα (setting [2]), the half-maximal effective concentration (EC50) is 258 nM.

The compound `Cc1ncsc1[C@H](Nc1cc(Cl)c2ncc(C#N)c(NCC(C)(C)C)c2c1)c1cn(C2(C3CC3)CC2)nn1` [Example 702, (R)-6-(((1-([1,1′-bi(cyclopropan)]-1-yl)-1H-1,2,3-triazol-4-yl)(4-methylthiazol-5-yl)methyl)amino)-8-chloro-4-(neopentylamino)quinoline-3-carbonitrile] registered a 50% inhibitory concentration (IC50) against Human Cot (setting [1]) of 4 nM. For the same compound, the EC50 with TNFα (setting [2]) was 188 nM.

On Human Cot (setting [1]), `CN1Cc2cccc([C@H](Nc3cc(Cl)c4ncc(C#N)c(NCC(C)(C)C)c4c3)c3cn(C4(C(F)F)CC4)nn3)c2C1=O` [Example 498, (S)-8-chloro-6-(((1-(1-(difluoromethyl)-cyclopropyl)-1H-1,2,3-triazol-4-yl)(2-methyl-3-oxoisoindolin-4-yl)methyl)-amino)-4-(neopentylamino)quinoline-3-carbonitrile] gave an IC50 of 19 nM. Besides, the EC50 in the test with TNFα (setting [2]) came to 689 nM.

`Cn1cnc(C(Nc2cc(Cl)c3ncc(C#N)c(Nc4ccc(F)c(Cl)c4)c3c2)c2cccnc2)c1` (stereo not drawn) [Example 403, 8-chloro-4-((3-chloro-4-fluoro-phenyl)amino)-6-(((1-methyl-1H-imidazol-4-yl)(pyridin-3-yl)methyl)-amino)quinoline-3-carbonitrile]: the IC50 on Human Cot (read-out: IC50 HTRF, Cot HTRF (TR-FRET) biochemical assay) stood at 9 nM. For the same compound, in the test on TNFα (setting [2]), the EC50 was determined as 290 nM.

Consider `CC(C)(C)CNc1c(C#N)cnc2c(C#N)cc(N[C@H](c3cn(CC(F)(F)F)nn3)c3cccc4ncsc34)cc12` [Example 460, (S)-6-((benzo[d]thiazol-7-yl(1-(2,2,2-trifluoroethyl)-1H-1,2,3-triazol-4-yl)methyl)amino)-4-(neopentylamino)-quinoline-3,8-dicarbonitrile], for which inhibition at Human Cot (setting [1]) was half-maximal at 5 nM (IC50). Moreover, in the test with TNFα (setting [2]), the EC50 worked out at 156 nM.

As for `Cc1ncsc1[C@H](Nc1cc(Cl)c2ncc(C#N)c(Nc3ccc(F)c(Cl)c3)c2c1)c1cn(C2CCN(C(C)(C)C)CC2)nn1` [Example 307, (R)-6-(((1-(1-(tert-butyl)piperidin-4-yl)-1H-1,2,3-triazol-4-yl)(4-methylthiazol-5-yl)methyl)amino)-8-chloro-4-((3-chloro-4-fluorophenyl)amino)quinoline-3-carbonitrile], the concentration for half-maximal inhibition (IC50) on Human Cot (setting [1]) is 4 nM. Further, in the test on TNFα (setting [2]), the 50% effective concentration (EC50) worked out at 60 nM.

`CC[C@@H](Nc1c(C#N)cnc2c(Cl)cc(N[C@@H](c3cccnc3)c3cn(C(C)C)nn3)cc12)c1ccccc1` [Example 193, 8-chloro-6-(((S)-(1-isopropyl-1H-1,2,3-triazol-4-yl)(pyridin-3-yl)methyl)amino)-4-(((R)-1-phenylpropyl)amino)quinoline-3-carbonitrile]: it took 2 nM to reach half-maximal inhibition against Human Cot (setting [1]) (IC50). Besides, the EC50 in the test with TNFα (setting [2]) is 107 nM.
